Measurements reported in patent EP2100894A1, “Pyridopyrimidines used as Plk1 (polo-like kinase) inhibitors” (4SC AG, priority 2008, dated 2009).

Molecular target: T1, PIk1 (Homo sapiens, UniProt P53350)
T1 construct: His tag (histidine tag) (N); made in house; host or cells: SF9 insect cells
Assay: PIk1 kinase activity inhibition assay (33P incorporation into alpha casein, flash plates)
Assay type: biochemical
Details: recombinant N-terminally histidine-tagged PIk1, alpha casein as substrate, 100 nM Li-ATP, 80 minutes at 30°C
Protocol: The inhibition of PIk1 kinase activity can be measured using recombinant PIk1 protein expressed as an N-terminally histidine-tagged protein in SF9 insect cells and alpha casein as substrate. The PIk1 assay is run in 96 well plates by incubating 50 to 100 ng per well recombinant PIk1, 500 ng per well alpha casein (Sigma, # C-6780) as substrate, 10 µl of compound of invention (test compounds were dissolved as 20 mM solutions in dimethylsulfoxide (DMSO) and subsequently diluted), and 100 nM Li-ATP (including ^33P-ATP) in 100 µl of reaction buffer ([…], pH 7.5; 3 mM MgCl2; 3 mM MnCl2; 3 µM Na-Orthovanadat; 1 mM DTT; 1 µg/ml PEG 8000) for 80 minutes at 30°C. The reactions are terminated by adding 100 µl stopping buffer (2% H3PO4 for 5 minutes) and are washed 3 times with washing solution (0,9% NaCl). Determining ^33P incorporated into the protein substrate alpha casein, the detection is based on the adhesion of the phosphorylated protein to the surface of scintillator-coated flash plates (Perkin Elmer, USA; # SMP-200). Phosphorylation of alpha casein is measured by counting the radioactivity bound to the plate for 60 sec. using a plate reader (Perkin Elmer, USA; Wallac Microbeta). By this method, the IC50 value of the PIk1 inhibition is determined as described above. […]

T1 sequence (P53350 whole entry): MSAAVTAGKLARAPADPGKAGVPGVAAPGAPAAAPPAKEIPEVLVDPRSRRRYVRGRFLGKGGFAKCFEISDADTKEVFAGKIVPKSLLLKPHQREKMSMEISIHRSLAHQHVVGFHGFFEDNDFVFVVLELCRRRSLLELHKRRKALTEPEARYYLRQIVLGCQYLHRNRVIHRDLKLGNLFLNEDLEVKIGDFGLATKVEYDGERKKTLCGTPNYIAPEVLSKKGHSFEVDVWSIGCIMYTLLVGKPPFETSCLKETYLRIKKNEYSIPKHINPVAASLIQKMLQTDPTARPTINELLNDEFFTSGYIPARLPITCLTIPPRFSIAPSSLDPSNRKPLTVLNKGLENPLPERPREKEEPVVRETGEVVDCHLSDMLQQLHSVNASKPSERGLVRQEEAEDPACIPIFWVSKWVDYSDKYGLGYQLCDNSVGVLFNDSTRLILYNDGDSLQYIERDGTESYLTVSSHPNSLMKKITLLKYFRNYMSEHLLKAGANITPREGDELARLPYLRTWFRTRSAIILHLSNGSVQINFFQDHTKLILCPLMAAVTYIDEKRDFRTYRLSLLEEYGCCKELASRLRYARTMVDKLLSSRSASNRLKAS

SMILES	IC50
COc1cc(C(=O)NC2CCN(C)CC2)ccc1Nc1ncc2c(n1)c(-c1cccc(F)c1)c(OCC1CC1)c(=O)n2C [Example 54, 4-{[7-(cyclopropylmethoxy)-8-(3-fluorophenyl)-5-methyl-6-oxo-5,6-dihydropyrido[3,2-d]pyrimidin-2-yl]amino}-3-methoxy-N-(1-methylpiperidin-4-yl)benzamide]	< 10 nM
C/C=C/c1c(OC2CC2)c(=O)n(C)c2cnc(Nc3ccc(C(=O)NC4CCN(C)CC4)cc3OC)nc12 [Example 56, 4-({7-(cyclopropyloxy)-5-methyl-6-oxo-8-[(1E)-prop-1-en-1-yl]-5,6-dihydropyrido[3,2-d]pyrimidin-2-yl}amino)-3-methoxy-N-(1-methylpiperidin-4-yl)benzamide]	< 10 nM
COc1cc(C(=O)NC2CCN(C)CC2)ccc1Nc1ncc2c(n1)c(C1=CCCC1)c(OCC1CC1)c(=O)n2C [Example 57, 4-{[8-cyclopent-1-en-1-yl-7-(cyclopropylmethoxy)-5-methyl-6-oxo-5,6-dihydropyrido[3,2-d]pyrimidin-2-yl]amino}-3-methoxy-N-(1-methylpiperidin-4-yl)benzamide]	< 10 nM
COc1cc(C(=O)NC2CCN(C)CC2)ccc1Nc1ncc2c(n1)c(-c1ccsc1)c(OC1CC1)c(=O)n2C [Example 58, 4-{[7-(cyclopropyloxy)-5-methyl-6-oxo-8-(3-thienyl)-5,6-dihydropyri-do[3,2-d]pyrimidin-2-yl]amino}-3-methoxy-N-(1-methylpiperidin-4-yl)benzamide]	< 10 nM
COc1cc(C(=O)NC2CCN(C)CC2)ccc1Nc1ncc2c(n1)c(-c1ccc(C)cc1)c(OCC1CC1)c(=O)n2C [Example 62, 4-{[7-(cyclopropylmethoxy)-5-methyl-8-(4-methylphenyl)-6-oxo-5,6-dihydropyrido[3,2-d]pyrimidin-2-yl]amino}-3-methoxy-N-(1-methylpiperidin-4-yl)benzamide]	< 10 nM
COc1cc(C(=O)NC2CCN(C)CC2)ccc1Nc1ncc2c(n1)c(-c1cscn1)c(OCC1CC1)c(=O)n2C [Example 63, 4-{[7-(cyclopropylmethoxy)-5-methyl-6-oxo-8-(1,3-thiazol-4-yl)-5,6-dihydropyrido[3,2-d]pyrimidin-2-yl]amino}-3-methoxy-N-(1-methylpiperidin-4-yl)benzamide]	< 10 nM
C/C=C/c1c(OCC2CC2)c(=O)n(C)c2cnc(Nc3ccc(C(=O)NC4CCN(C)CC4)cc3C)nc12 [Example 64, 4-({7-(cyclopropylmethoxy)-5-methyl-6-oxo-8-[(1E)-prop-1-en-1-yl]-5,6-dihydropyrido[3,2-d]pyrimidin-2-yl}amino)-3-methyl-N-(1-methylpiperidin-4-yl)benzamide]	< 10 nM
C/C=C/c1c(OCC2CC2)c(=O)n(C)c2cnc(Nc3ccc(C(=O)NC4CCN(C)CC4)cc3CC)nc12 [Example 65, 4-({7-(cyclopropylmethoxy)-5-methyl-6-oxo-8-[(1E)-prop-1-en-1-yl]-5,6-dihydropyrido[3,2-d]pyrimidin-2-yl}amino)-3-ethyl-N-(1-methylpiperidin-4-yl)benzamide]	< 10 nM
Cc1cc(C(=O)NC2CCN(C)CC2)ccc1Nc1ncc2c(n1)c(-c1ccsc1)c(OCC1CC1)c(=O)n2C [Example 66, 4-{[7-(cyclopropylmethoxy)-5-methyl-6-oxo-8-(3-thienyl)-5,6-dihydropyrido[3,2-d]pyrimidin-2-yl]amino}-3-methyl-N-(1-methylpiperidin-4-yl)benzamide]	< 10 nM
COc1cc(C(=O)NC2CCN(C)CC2)ccc1Nc1ncc2c(n1)c(-c1ccc[nH]1)c(OCC1CC1)c(=O)n2C [Example 73, 4-{[7-(cyclopropylmethoxy)-5-methyl-6-oxo-8-(1H-pyrrol-2-yl)-5,6-dihydro-pyrido[3,2-d]pyrimidin-2-yl]amino}-3-methoxy-N-(1-methylpiperidin-4-yl)benzamide]	< 10 nM
CCOc1cc(C(=O)NC2CCN(C)CC2)ccc1Nc1ncc2c(n1)c(-c1ccsc1)c(OCC1CC1)c(=O)n2C [Example 75, 4-{[7-(cyclopropylmethoxy)-5-methyl-6-oxo-8-(3-thienyl)-5,6-dihydro-pyrido[3,2-d]pyrimidin-2-yl]amino}-3-ethoxy-N-(1-methylpiperidin-4-yl)benzamide]	< 10 nM

Continued, values first:

IC50	SMILES
< 10 nM	COc1cc(C(=O)NC2CCN(C)CC2)ccc1Nc1ncc2c(n1)c(-c1ccc(F)cc1)c(OCC1CC1)c(=O)n2C [Example 52, 4-{[7-(cyclopropylmethoxy)-8-(4-fluorophenyl)-5-methyl-6-oxo-5,6-dihydropyrido[3,2-d]pyrimidin-2-yl]amino}-3-methoxy-N-(1-methylpiperidin-4-yl)benzamide]
< 10 nM	COc1cc(C(=O)NC2CCN(C)CC2)ccc1Nc1ncc2c(n1)c(-c1cccs1)c(OCC1CC1)c(=O)n2C [Example 53, 4-{[7-(cyclopropylmethoxy)-5-methyl-6-oxo-8-(2-thienyl)-5,6-dihydro-pyrido[3,2-d]pyrimidin-2-yl]amino}-3-methoxy-N-(1-methylpiperidin-4-yl)benzamide]
< 10 nM	COc1cc(C(=O)NC2CCN(C)CC2)ccc1Nc1ncc2c(n1)c(-c1cc(C)cs1)c(OCC1CC1)c(=O)n2C [Example 55, 4-{[7-(cyclopropylmethoxy)-5-methyl-8-(4-methyl-2-thienyl)-6-oxo-5,6-dihydropyrido[3,2-d]pyrimidin-2-yl]amino}-3-methoxy-N-(1-methylpiperidin-4-yl)benzamide]
< 10 nM	COc1cc(C(=O)NC2CCN(C)CC2)ccc1Nc1ncc2c(n1)c(-c1ccccc1F)c(OCC1CC1)c(=O)n2C [Example 59, 4-{[7-(cyclopropylmethoxy)-8-(2-fluorophenyl)-5-methyl-6-oxo-5,6-dihydropyrido[3,2-d]pyrimidin-2-yl]amino}-3-methoxy-N-(1-methylpiperidin-4-yl)benzamide]
< 10 nM	COc1cc(C(=O)NC2CCN(C)CC2)ccc1Nc1ncc2c(n1)c(-c1csc(C)c1)c(OCC1CC1)c(=O)n2C [Example 60, 4-{[7-(cyclopropylmethoxy)-5-methyl-8-(5-methyl-3-thienyl)-6-oxo-5,6-dihydropyrido[3,2-d]pyrimidin-2-yl]amino}-3-methoxy-N-(1-methylpiperidin-4-yl)benzamide]
< 10 nM	COc1cc(C(=O)NC2CCN(C)CC2)ccc1Nc1ncc2c(n1)c(-c1cccc(C)c1)c(OCC1CC1)c(=O)n2C [Example 61, 4-{[7-(cyclopropylmethoxy)-5-methyl-8-(3-methylphenyl)-6-oxo-5,6-dihydropyrido[3,2-d]pyrimidin-2-yl]amino}-3-methoxy-N-(1-methylpiperidin-4-yl)benzamide]
< 10 nM	C/C=C/c1c(OCC2CC2)c(=O)n(C)c2cnc(Nc3ccc(C(=O)NC4CCN(C)CC4)cc3Cl)nc12 [Example 67, 3-chloro-4-({7-(cyclopropylmethoxy)-5-methyl-6-oxo-8-[(1E)-prop-1-en-1-yl]-5,6-dihydropyrido[3,2-d]pyrimidin-2-yl}amino)-N-(1-methylpiperidin-4-yl)benzamide]
< 10 nM	COc1cc(C(=O)NC2CCN(C)CC2)ccc1Nc1ncc2c(n1)c(-c1ccncc1)c(OCC1CC1)c(=O)n2C [Example 68, 4-{[7-(cyclopropylmethoxy)-5-methyl-6-oxo-8-pyridin-4-yl-5,6-dihydro-pyrido[3,2-d]pyrimidin-2-yl]amino}-3-methoxy-N-(1-methylpiperidin-4-yl)benzamide]
< 10 nM	COc1cc(C(=O)NC2CCN(C)CC2)ccc1Nc1ncc2c(n1)c(-c1cccnc1)c(OCC1CC1)c(=O)n2C [Example 69, 4-{[7-(cyclopropylmethoxy)-5-methyl-6-oxo-8-pyridin-3-yl-5,6-dihydro-pyrido[3,2-d]pyrimidin-2-yl]amino}-3-methoxy-N-(1-methylpiperidin-4-yl)benzamide]
< 10 nM	CN1CCC(NC(=O)c2ccc(Nc3ncc4c(n3)c(-c3ccsc3)c(OCC3CC3)c(=O)n4C)c(Cl)c2)CC1 [Example 70, 3-chloro-4-{[7-(cyclopropylmethoxy)-5-methyl-6-oxo-8-(3-thienyl)-5,6-dihydropyrido[3,2-d]pyrimidin-2-yl]amino}-N-(1-methylpiperidin-4-yl)benzamide]
< 100 nM	COc1cc(C(=O)NC2CCN(C)CC2)ccc1Nc1ncc2c(n1)c(-c1ccccc1C)c(OCC1CC1)c(=O)n2C [Example 71, 4-{[7-(cyclopropylmethoxy)-5-methyl-8-(2-methylphenyl)-6-oxo-5,6-dihydropyrido[3,2-d]pyrimidin-2-yl]amino}-3-methoxy-N-(1-methylpiperidin-4-yl)benzamide]
< 10 nM	CCc1cc(C(=O)NC2CCN(C)CC2)ccc1Nc1ncc2c(n1)c(-c1ccsc1)c(OCC1CC1)c(=O)n2C [Example 72, 4-{[7-(cyclopropylmethoxy)-5-methyl-6-oxo-8-(3-thienyl)-5,6-dihydro-pyrido[3,2-d]pyrimidin-2-yl]amino}-3-ethyl-N-(1-methylpiperidin-4-yl)benzamide]
< 10 nM	COc1cc(C(=O)NC2CCN(C)CC2)ccc1Nc1ncc2c(n1)c(-c1ccccn1)c(OCC1CC1)c(=O)n2C [Example 74, 4-{[7-(cyclopropylmethoxy)-5-methyl-6-oxo-8-pyridin-2-yl-5,6-dihydro-pyrido[3,2-d]pyrimidin-2-yl]amino}-3-methoxy-N-(1-methylpiperidin-4-yl)benzamide]
